From patent publication US20240270762A1, “PENICILLIN-BINDING PROTEIN INHIBITORS” (priority 2021, published 2024)
pEC50: −log10 of the molar value. ≈ marks a conversion by molar mass, not a printed value.

What was measured:
[1] = target: T1, PBP3 from Escherichia coli (K-12) (Escherichia coli, UniProt P0AD68); experiment: Bocillin-FL fluorescence polarization competition binding, E. coli PBP3
T1 construct: made in house
From the text: To determine the ability of boronic acid-based test PBP inhibitors to bind Penicillin Binding Proteins (PBPs), Bocillin-FL (fluorescently-labeled penicillin V; ThermoFisher Scientific) was used in a fluorescence polarization (FP) competition binding assay to assess inhibitor binding to PBP3 from Escherichia coli (K-12), PBP3 from Pseudomonas aeruginosa (PAO1), PBP1a and PBP3 from Acinetobacter baumannii (ATCC 19606), and PBP2 from Neisseria gonorrhoeae (FA19). PBPs were cloned and purified as described previously (E. coli PBP3, King, D. T, et al., ACS Infectious Diseases 2015, 1, 175-184; P. aeruginosa PBP3, Han et. al., PNAS 2010, 107 (51), 22002-22007; A. baumannii PBPs, Penwell et. al., Antimicrob. Agents Chemother. 2015, 59 (3), 1680-1689; N. gonorrhoeae PBP2, Singh et. al., J. Biol. Chem. 2019, 294 (38), 14020-14032). To establish assay conditions for competition binding, enzyme titration/saturation binding experiments were initially performed. Bocillin-FL was prepared at 0.2 μM in a buffer comprised of 50 mM Hepes (pH 8.0), 300 mM NaCl and 10% (v/v) glycerol for reactions with E. coli, P. aeruginosa and N. gonorrhoeae PBPs, and 25 mM Tris (pH 8.0), 200 mM NaCl, 10% (v/v) glycerol and 0.005% (v/v) Tween 20 for reactions with A. baumannii PBPs. Saturation binding was performed by mixing 40 μl of PBP solutions ranging in concentrations from 0-24 μM with 40 μl of the 0.2 μM Bocillin-FL solution, in individual wells of a black 384-well microplate. FP was measured immediately upon mixing (Excitation, 490 nm; Emission, 520 nm; g-factor, 0.96), using a Cytation3 (BioTek) microplate reader and measured continuously for up to 120 minutes. The FP response stabilized after 15 minutes for P. aeruginosa and A. baumannii PBP3, 30 minutes for E. coli PBP3 and A. baumannii PBP1a, and less than 1 minute for N. gonorrhoeae PBP2. […] The competition binding assay (80 μl final volume) was validated using beta-lactams and PBPs at final concentrations of: 1.5 μM for E. coli PBP3; 0.75 μM for P. aeruginosa PBP3; 1 μM for A. baumannii PBP1a; 0.2 μM for A. baumannii PBP3; and 0.25 μM for N. gonorrhoeae PBP2. Bocillin-FL was at 0.1 μM (0.05 μM with A. baumannii PBP1a) and beta-lactam concentrations ranged from 0-1,000 μM. E. coli PBP3 was incubated with increasing concentrations of ampicillin in a black 384-well microplate (Corning) for 30 minutes. P. aeruginosa PBP3 was incubated for 15 minutes with aztreonam, whereas A. baumannii PBP1a and PBP3 were incubated for 15 minutes with meropenem, and then Bocillin-FL was added followed immediately by the FP measurement for up to 60 minutes. […] The beta-lactam potency was reported as the concentration of beta-lactam required to reduce the amount of PBP bound-Bocillin-FL by 50% (EC50). […] The EC50 of aztreonam was determined to be <0.5 μM for P. aeruginosa PBP3. […] Binding assays for boronic acid PBP inhibitors were performed in an identical fashion for the respective PBPs.

E. coli ATCC 25922 = experiment: microbe, parasite or virus in culture; type: cell-based; conditions: Escherichia coli, ATCC25922, read-out: MIC E. coli 25922
E. coli D22 = experiment: microbe, parasite or virus in culture; type: cell-based; conditions: Escherichia coli, D22, read-out: MIC E. coli D22
E. coli AG100A = experiment: Broth microdilution MIC in CAMHB; type: cell-based; conditions: Escherichia coli, read-out: MIC E. coli AG100A
K. pneumoniae UMM = experiment: microbe, parasite or virus in culture; type: cell-based; conditions: Klebsiella pneumoniae, read-out: MIC K. pneumoniae UMM
K. pneumoniae SI-117 = experiment: microbe, parasite or virus in culture; type: cell-based; conditions: Klebsiella pneumoniae, SI117, read-out: MIC K. pneumoniae SI-117
A. baumannii ATCC 19606 = experiment: microbe, parasite or virus in culture; type: cell-based; conditions: Acinetobacter baumannii, ATCC19606, read-out: MIC, A. baumannii ATCC 19606
P. aeruginosa ATCC 35151 = experiment: microbe, parasite or virus in culture; type: cell-based; conditions: Pseudomonas aeruginosa, ATCC35151, read-out: MIC P. aeruginosa ATCC 35151
[2] = tested on: N. gonorrhoeae ATCC 49226; experiment: Liquid broth MIC in Fastidious broth; conditions: Neisseria gonorrhoeae, ATCC49226, read-out: Minimum Inhibitory Concentration (MIC), N. gonorrhoeae ATCC 49226
N. gonorrhoeae MS11 = experiment: Liquid broth MIC in Fastidious broth; conditions: Neisseria gonorrhoeae, MS11, read-out: Minimum Inhibitory Concentration (MIC), N. gonorrhoeae MS11
N. gonorrhoeae WHO L = experiment: Liquid broth MIC in Fastidious broth; conditions: Neisseria gonorrhoeae, read-out: Minimum Inhibitory Concentration (MIC), N. gonorrhoeae WHO L
N. gonorrhoeae WHO M = experiment: Liquid broth MIC in Fastidious broth; conditions: Neisseria gonorrhoeae, read-out: Minimum Inhibitory Concentration (MIC), N. gonorrhoeae WHO M
Procedure: Liquid broth-based assays were used for antibacterial testing of PBP inhibitors in Neisseria gonorrhoeae. Briefly, cryo-preserved bacterial cultures of clinical strains were streaked for isolation on Chocolate Agar (72 g/L (2×) GC Agar Base (BD #228950) and 2% (2×) Hemoglobin was autoclaved at 121° C. for 20 minutes to sterilize. Once cooled to ˜50° C. the 2×GC Agar Base and 2× Hemoglobin solutions are combined and 1% IsoVitaleX Enrichment (BD #211876) was added to the solution). Strains were incubated at 36° C. and 5% CO2 to allow growth of colonies, 24 hours before inoculum preparation. 2-fold serial dilutions of test compounds were conducted in a 96 well plate with a final volume of 75 μL per well at 2-fold the final desired concentration in Fastidious broth (Remel #R07664). For preparation of assay inoculum, a direct suspension was prepared by aseptically swabbing 10-15 colonies from agar plates into culture tubes containing 2 mL of fresh sterile saline. After the dilution plates were set up, direct suspensions were then diluted in a cuvette containing sterile saline and the optical density was measured at 600 nm. Inocula were diluted such that 75 μL of this culture in Fastidious broth results in a starting bacterial concentration of 5×10^5 CFU/mL when added to the dilution plates. The plates were incubated for ˜24 hours at 36° C. and 5% CO2.

N. gonorrhoeae WHO K = experiment: Liquid broth MIC in Fastidious broth; conditions: Neisseria gonorrhoeae, read-out: Minimum Inhibitory Concentration (MIC), N. gonorrhoeae WHO K
N. gonorrhoeae WHO Z = experiment: Liquid broth MIC in Fastidious broth; conditions: Neisseria gonorrhoeae, read-out: Minimum Inhibitory Concentration (MIC), N. gonorrhoeae WHO Z
N. gonorrhoeae WHO Q = experiment: Liquid broth MIC in Fastidious broth; conditions: Neisseria gonorrhoeae, read-out: Minimum Inhibitory Concentration (MIC), N. gonorrhoeae WHO Q
N. gonorrhoeae CDC-0197 = experiment: Liquid broth MIC in Fastidious broth; conditions: Neisseria gonorrhoeae, CDC0197, read-out: Minimum Inhibitory Concentration (MIC), N. gonorrhoeae CDC-0197

T1 sequence (P0AD68 1-577): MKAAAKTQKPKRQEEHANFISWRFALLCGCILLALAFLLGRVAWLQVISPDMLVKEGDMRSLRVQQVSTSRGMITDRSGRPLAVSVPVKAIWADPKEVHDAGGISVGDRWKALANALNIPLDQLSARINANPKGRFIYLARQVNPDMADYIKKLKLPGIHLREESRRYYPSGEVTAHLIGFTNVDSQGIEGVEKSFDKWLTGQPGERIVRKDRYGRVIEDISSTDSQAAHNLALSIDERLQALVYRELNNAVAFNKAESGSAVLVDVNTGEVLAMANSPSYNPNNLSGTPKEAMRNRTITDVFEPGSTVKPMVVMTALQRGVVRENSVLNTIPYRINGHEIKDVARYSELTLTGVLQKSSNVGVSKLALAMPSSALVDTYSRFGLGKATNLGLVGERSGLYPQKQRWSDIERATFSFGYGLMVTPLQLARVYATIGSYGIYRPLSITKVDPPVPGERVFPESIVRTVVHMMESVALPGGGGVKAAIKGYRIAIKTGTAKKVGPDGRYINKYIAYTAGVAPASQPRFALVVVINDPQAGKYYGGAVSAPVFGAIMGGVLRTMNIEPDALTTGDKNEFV

| SMILES | pEC50 [1] | MIC (E. coli ATCC 25922) | MIC (E. coli D22) | MIC (E. coli AG100A) | MIC (K. pneumoniae UMM) | MIC (K. pneumoniae SI-117) | MIC (A. baumannii ATCC 19606) | MIC (P. aeruginosa ATCC 35151) | MIC [2] | MIC (N. gonorrhoeae MS11) | MIC (N. gonorrhoeae WHO L) | MIC (N. gonorrhoeae WHO M) | MIC (N. gonorrhoeae WHO K) | MIC (N. gonorrhoeae WHO Z) | MIC (N. gonorrhoeae WHO Q) | MIC (N. gonorrhoeae CDC-0197) |
| --- | --- | --- | --- | --- | --- | --- | --- | --- | --- | --- | --- | --- | --- | --- | --- | --- |
| CCN1CCN(C(=O)N[C@H](C(=O)N[C@H]2Cc3ccc(F)c(C(=O)O)c3OB2O)c2ccc(P(=O)(O)O)cc2)C(=O)C1=O (single isomer, unassigned) [Example 9] | 3.60 to 4.30 | > 128 µg/mL | 32 to 64 µg/mL (≈ 52.8 to 106 µM) | > 128 µg/mL | > 128 µg/mL | > 128 µg/mL | > 128 µg/mL | 8 to 16 µg/mL (≈ 13.2 to 26.4 µM) | 1 to 2 µg/mL (≈ 1.65 to 3.3 µM) | 1 to 2 µg/mL (≈ 1.65 to 3.3 µM) | 4 to 8 µg/mL (≈ 6.6 to 13.2 µM) | < 1 µg/mL | 1 to 2 µg/mL (≈ 1.65 to 3.3 µM) | < 1 µg/mL | 1 to 2 µg/mL (≈ 1.65 to 3.3 µM) | < 1 µg/mL |
| Cn1cccc(C(=O)N[C@@H](C(=O)N[C@H]2Cc3cccc(C(=O)O)c3OB2O)c2ccc(P(=O)(O)O)cc2)c1=O (single isomer, unassigned) [Example 182] | > 5.00 | > 128 µg/mL | 8 to 16 µg/mL (≈ 14.4 to 28.8 µM) | 32 to 64 µg/mL (≈ 57.6 to 115 µM) | > 128 µg/mL | > 128 µg/mL | > 128 µg/mL | < 1 µg/mL | 1 to 2 µg/mL (≈ 1.8 to 3.6 µM) | 1 to 2 µg/mL (≈ 1.8 to 3.6 µM) | 16 to 32 µg/mL (≈ 28.8 to 57.6 µM) | < 1 µg/mL | 4 to 8 µg/mL (≈ 7.2 to 14.4 µM) | 1 to 2 µg/mL (≈ 1.8 to 3.6 µM) | 1 to 2 µg/mL (≈ 1.8 to 3.6 µM) | 1 to 2 µg/mL (≈ 1.8 to 3.6 µM) |
| N#Cc1cccc(C(=O)N[C@@H](C(=O)N[C@H]2Cc3cccc(C(=O)O)c3OB2O)c2ccc(P(=O)(O)O)cc2)n1 [Example 180, (R)-3-((R)-2-(6-cyanopicolinamido)-2-(4-phosphonophenyl)acetamido)-2-hydroxy-3,4-dihydro-2H-benzo[e][1,2]oxaborinine-8-carboxylic acid] | > 5.00 | > 128 µg/mL | 2 to 4 µg/mL (≈ 3.63 to 7.27 µM) | 8 to 16 µg/mL (≈ 14.5 to 29.1 µM) | > 128 µg/mL | > 128 µg/mL | > 128 µg/mL | 2 to 4 µg/mL (≈ 3.63 to 7.27 µM) | < 1 µg/mL | 1 to 2 µg/mL (≈ 1.82 to 3.63 µM) | 4 to 8 µg/mL (≈ 7.27 to 14.5 µM) | < 1 µg/mL | 1 to 2 µg/mL (≈ 1.82 to 3.63 µM) | < 1 µg/mL | 1 to 2 µg/mL (≈ 1.82 to 3.63 µM) | < 1 µg/mL |
| O=C(N[C@@H](C(=O)N[C@H]1Cc2cccc(C(=O)O)c2OB1O)c1ccc(P(=O)(O)O)cc1)c1ccc(O)c(O)c1Cl [Example 49, (R)-3-((R)-2-(2-chloro-3,4-dihydroxybenzamido)-2-(4-phosphonophenyl)acetamido)-2-hydroxy-3,4-dihydro-2H-benzo[e][1,2]oxaborinine-8-carboxylic acid] | < 3.60 |  |  |  |  |  |  |  |  |  |  |  |  |  |  |  |
| O=C(NCCN1CCN(C(=O)NC(C(=O)N[C@H]2Cc3ccc(F)c(C(=O)O)c3OB2O)c2ccc(P(=O)(O)O)cc2)C(=O)C1=O)c1ccc(O)c(O)c1Cl (stereo partly drawn) [Example 120, (3R)-3-(2-(4-(2-(2-chloro-3,4-dihydroxybenzamido)ethyl)-2,3-dioxopiperazine-1-carboxamido)-2-(4-phosphonophenyl)acetamido)-7-fluoro-2-hydroxy-3,4-dihydro-2H-benzo[e][1,2]oxaborinine-8-carboxylic acid] | > 5.00 |  |  |  |  |  |  |  |  |  |  |  |  |  |  |  |
| O=C(O)c1c(F)ccc2c1OB(O)[C@@H](NC(=O)C(NC(=O)N1CCN(Cc3cc(F)c(O)c(O)c3Cl)C(=O)C1=O)c1ccc(P(=O)(O)O)cc1)C2 (stereo partly drawn) [Example 45, (3R)-3-(2-(4-(2-chloro-5-fluoro-3,4-dihydroxybenzyl)-2,3-dioxopiperazine-1-carboxamido)-2-(4-phosphonophenyl)acetamido)-7-fluoro-2-hydroxy-3,4-dihydro-2H-benzo[e][1,2]oxaborinine-8-carboxylic acid] | > 5.00 |  |  |  |  |  |  |  | < 1 µg/mL | < 1 µg/mL | 4 to 8 µg/mL (≈ 5.31 to 10.6 µM) | < 1 µg/mL | 1 to 2 µg/mL (≈ 1.33 to 2.66 µM) | 1 to 2 µg/mL (≈ 1.33 to 2.66 µM) | 1 to 2 µg/mL (≈ 1.33 to 2.66 µM) | 1 to 2 µg/mL (≈ 1.33 to 2.66 µM) |
| O=C(O)c1cccc2c1OB(O)[C@@H](NC(=O)C(NC(=O)N1CCN(Cc3ccc(O)c(O)c3Cl)C(=O)C1=O)c1ccc(P(=O)(O)O)cc1)C2 (stereo partly drawn) [Example 24, (3R)-3-(2-(4-(2-chloro-3,4-dihydroxybenzyl)-2,3-dioxopiperazine-1-carboxamido)-2-(4-phosphonophenyl)acetamido)-2-hydroxy-3,4-dihydro-2H-benzo[e][1,2]oxaborinine-8-carboxylic acid] | > 5.00 |  |  |  |  |  |  |  | < 1 µg/mL | < 1 µg/mL | 4 to 8 µg/mL (≈ 5.58 to 11.2 µM) | < 1 µg/mL | 4 to 8 µg/mL (≈ 5.58 to 11.2 µM) | 1 to 2 µg/mL (≈ 1.4 to 2.79 µM) | 1 to 2 µg/mL (≈ 1.4 to 2.79 µM) | 1 to 2 µg/mL (≈ 1.4 to 2.79 µM) |
| O=C(O)c1c(F)ccc2c1OB(O)[C@@H](NC(=O)C(NC(=O)N1CCN(Cc3ccc(O)c(O)c3Cl)C1=O)c1ccc(P(=O)(O)O)cc1)C2 (stereo partly drawn) [Example 46, (3R)-3-(2-(3-(2-chloro-3,4-dihydroxybenzyl)-2-oxoimidazolidine-1-carboxamido)-2-(4-phosphonophenyl)acetamido)-7-fluoro-2-hydroxy-3,4-dihydro-2H-benzo[e][1,2]oxaborinine-8-carboxylic acid] | > 5.00 |  |  |  |  |  |  |  | < 1 µg/mL | < 1 µg/mL | 4 to 8 µg/mL (≈ 5.66 to 11.3 µM) | < 1 µg/mL | 1 to 2 µg/mL (≈ 1.41 to 2.83 µM) | < 1 µg/mL | < 1 µg/mL | < 1 µg/mL |
| O=C(O)c1c(F)ccc2c1OB(O)[C@@H](NC(=O)C(NC(=O)N1CCN(Cc3ccc(O)c(O)c3Cl)C(=O)C1=O)c1ccc(P(=O)(O)O)c(F)c1)C2 (stereo partly drawn) [Example 23, (3R)-3-(2-(4-(2-chloro-3,4-dihydroxybenzyl)-2,3-dioxopiperazine-1-carboxamido)-2-(3-fluoro-4-phosphonophenyl)acetamido)-7-fluoro-2-hydroxy-3,4-dihydro-2H-benzo[e][1,2]oxaborinine-8-carboxylic acid] | > 5.00 |  |  |  |  |  |  |  | < 1 µg/mL | < 1 µg/mL | 4 to 8 µg/mL (≈ 5.31 to 10.6 µM) | < 1 µg/mL | < 1 µg/mL | < 1 µg/mL | < 1 µg/mL | < 1 µg/mL |
